# Laboratory results published in PubChem BioAssay AID720670 (NMMLSC, 2013).
# Inconclusive results are not listed. The source made the active and inactive calls.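 Rule for the calls: active = inhibition of the calcium rise above 50%; inconclusive = blank fluorescence over twice solvent-only controls, so no ratio; inactive = inhibition below 50%.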
# Tested on: TALL-104 cells, thapsigargin Ca2+ rise, fura-2 ratio
# Test: inhibitors of thapsigargin-evoked calcium rise, mechanism study for lytic granule exocytosis inhibitor project, TALL-104 cells, fura-2 fluorescence, CherryPick01 (AID 720670)
# Settings: at 30 µM; stronger effect = higher value
row,Compound,inhibition
1,CCCCC[C@@H](C)N1C[C@@H](COCc2ccccc2)Oc2cc(N3CC[C@H](N(C)C)C3)ccc2S1(=O)=O,37.6% (inactive)
2,O=c1c2ccccc2sn1-c1ccccc1F,18.8% (inactive)
3,COc1ccccc1CNc1nc(NCc2ccc(C(C)C)cc2)c2sccc2n1,4.1% (inactive)
4,OC(CNCC(c1ccc(Cl)cc1Cl)c1c[nH]c2ccccc12)c1ccccc1 (configuration not stated),34.1% (inactive)
5,CCOc1ccc2nc(N(CCCN(C)C)C(=O)c3ccc(S(=O)(=O)N4CCc5ccccc5C4)cc3)sc2c1,69.4%
6,COc1ccc(N2C(=O)CC(Sc3nnc(-c4ccccc4)o3)C2=O)cc1 (configuration not stated),-14.7% (inactive)
7,CC1(C(=O)OCC(=O)Nc2nc(-c3ccc(F)c(F)c3)cs2)CC1(Cl)Cl (configuration not stated),20.1% (inactive)
8,Cn1sc(=O)c2cc(S(=O)(=O)NC3CC3)ccc21,91.3%
9,COc1ccc(-c2cc(NC=O)c3ncc(-c4cccc(OC)c4)n3c2)cc1,22.8% (inactive)
10,CC1COCC(C)N1C1=C(Cl)C(=O)c2ccccc2C1=O (configuration not stated),27% (inactive)
11,CC(=O)Nc1ccc2sn(-c3ccccc3)c(=O)c2c1,12.6% (inactive)
12,O=c1c2ccccc2sn1-c1ccccc1,-10.6% (inactive)
13,CCCCn1c(=N)n(CC(=O)c2ccc(Br)s2)c2ccccc21,58.6%
14,CCOc1cc(CNCCc2ccc(S(N)(=O)=O)cc2)ccc1OCc1ccc(Cl)cc1,63.5%
15,CN(c1ccccc1)S(=O)(=O)c1cccc(C(=O)NCCc2c[nH]c3ccccc23)c1,78.8%
16,Cc1cc(N2CCN(c3nc(-c4ccc([N+](=O)[O-])cc4)cs3)CC2)c2ccccc2n1,-35.4% (inactive)
17,COc1cccc(NC(=O)Nc2nc(-c3ccc(OC)c(OC)c3)cs2)c1,90.9%
18,CCc1nc2ccc(C(=O)NC3CCN(Cc4ccccc4)CC3)cn2c1N(C)Cc1cc2ccccc2s1,3.6% (inactive)
19,COc1cccc(-c2cnc3c(NC=O)cc(-c4ccccc4)cn23)c1,66.5%
20,Cc1ccc(Nc2nc(NCc3ccco3)c3ccccc3n2)cc1,-2.3% (inactive)
21,O=C1Nc2ccc(Br)cc2/C1=C/C(=O)c1ccccc1,15.1% (inactive)

row,Compound,inhibition
1,CCCNC(=O)Cn1sc2nc(C)cc(C)c2c1=O,19.7% (inactive)
2,O=C(Nc1ccc(F)cc1)c1nc(S(=O)(=O)Cc2ccccc2)ncc1Cl,75.7%
3,CCc1ccc(/C=C2/Sc3ccccc3N(CC(=O)NCCCN3CCOCC3)C2=O)cc1,3.8% (inactive)
4,O=S(=O)(c1ccccc1)c1nnn2c1nc(NC1CCN(Cc3ccccc3)CC1)c1cc(Cl)ccc12,79.3%
5,CCOC(=O)c1nnc(-c2ccccc2)nc1Sc1ccccc1Cl,21.2% (inactive)
6,COc1ccccc1CNc1nc(NCc2ccc3occc3c2)c2sccc2n1,8.8% (inactive)
7,Cc1ccc(S(=O)(=O)n2ccc3c(OCCOCCNCc4ccc(F)cc4)cccc32)cc1,39.2% (inactive)
8,N#Cc1c(Nc2ccccc2Cl)s[nH]c1=O,9.3% (inactive)
9,CCOc1ccc2nc(C)cc(Nc3cccc([N+](=O)[O-])c3)c2c1,77.7%
10,O=C(Cn1sc2ccccc2c1=O)NC12CC3CC(CC(C3)C1)C2,3% (inactive)
11,CCOC(=O)c1c(NC(=O)COc2ccccc2OCC)sc2c1CC(C)(C)NC2(C)C,32.1% (inactive)
12,COC(=O)c1c(NC(=O)c2ccc(C(=O)c3ccccc3)cc2)sc2c1CC(C)(C)NC2(C)C,73.3%
13,CCOC(=O)c1cc(-c2csc(Nc3c(C)cc(C)cc3C)n2)on1,79.7%
14,CCCCC[C@@H](C)N1C[C@H](COCc2ccccc2)Oc2cc(N3CC[C@@H](N(C)C)C3)ccc2S1(=O)=O,37.4% (inactive)
15,COC(=O)[C@]12CCCCC=C1N(Cc1cccc3ccccc13)C(=O)[C@H](CC(=O)NCc1ccc(OC)c(OC)c1)C2,6.3% (inactive)
16,CCCCC[C@@H](C)N1C[C@@H](COCc2ccccc2)Oc2cc(N3CC[C@@H](N(C)C)C3)ccc2S1(=O)=O,21.3% (inactive)
17,CC1=NOC(=O)/C1=C/c1ccc(-c2ccc(Cl)cc2)o1,18.1% (inactive)
18,O=C1C=CC(=O)N1N(c1ccccc1)c1ccccc1,11.2% (inactive)
19,c1ccc(CNc2nc(NCC3CC3)nc3cc(-c4ccccc4)sc23)cc1,70%
20,O=C1CC(Sc2nnnn2-c2ccccc2)C(=O)N1c1cccc(Cl)c1 (configuration not stated),6.9% (inactive)
21,O=C(Cn1sc2ccccc2c1=O)Nc1ccc(F)cc1,-21.1% (inactive)

row,Compound,inhibition
1,CC1=C(C)CS(=O)N(S(=O)(=O)c2ccc(Cl)cc2)C1 (configuration not stated),11.4% (inactive)
2,COc1cccc(-c2cnc3c(NC(C)=O)cc(-c4ccccc4OC)cn23)c1,81.3%
3,CCc1ccc2nc(N(CCCN(C)C)C(=O)c3ccc(S(=O)(=O)N4CCc5ccccc5C4)cc3)sc2c1,50.9%
4,COC(=O)c1c(NC(=O)c2nc3ccccc3s2)sc2c1CC(C)(C)NC2(C)C,41.7% (inactive)
5,Cc1ccc(-n2nnc3c(=O)oc4ccccc4c32)cc1,116%
6,CCC(=C(c1ccc(OC)cc1)c1ccc(OC)cc1)c1cn(CC(O)CN2CCN(C)CC2)c2ccccc12 (configuration not stated),41.5% (inactive)
7,CCOC(=O)c1c(CSc2ccccc2)n(C)c2cc(Br)c(O)c(CN(C)C)c12,70.2%
8,CC(=O)Nc1ccc2c(=O)n(-c3ccccc3)sc2c1,16.3% (inactive)
9,CCCS(=O)(=O)Nc1ccc(Nc2c3ccccc3nc3ccccc23)c(OC)c1,67.1%
10,COc1cc(-c2coc3c(C(=O)NCc4ccc(OC)c(OC)c4)cccc23)ccc1O,15.4% (inactive)
11,O=c1c2ccc(F)cc2sn1-c1ccccc1,7.1% (inactive)
12,COc1ccc(-n2sc3ccccc3c2=O)cc1,19.8% (inactive)
13,CC(C)(c1ccccc1)c1ccc(OCC(O)CNC2CCN(Cc3ccccc3)CC2)cc1 (configuration not stated),27.1% (inactive)
14,N#Cc1ccc(NC(=O)Nc2ccc(Oc3ccc(NC(=O)Nc4ccc(C#N)cc4)cc3)cc2)cc1,-1.1% (inactive)
15,O=CNc1cc(-c2ccsc2)cn2c(-c3ccccc3)cnc12,11% (inactive)
16,O=C(OCc1ccccc1)N(CCCCN(CCCNCc1ccccc1)C(=O)OCc1ccccc1)CCCNCc1ccccc1,57.3%
17,COc1ccc(-c2cc(NC=O)c3ncc(-c4ccccc4)n3c2)cc1OC,31.5% (inactive)
18,COc1ccc([N+](=O)[O-])cc1Nc1c2ccccc2nc2ccccc12,12.2% (inactive)
19,CN(C)CCCNC(=S)NCC(c1ccc(Cl)cc1Cl)c1c[nH]c2ccccc12 (configuration not stated),10.4% (inactive)
20,COc1cccc(-c2cnc3c(NC(C)=O)cc(-c4ccsc4)cn23)c1,39.6% (inactive)
